Source: patent publication US12064517B1, “Polymer nanoparticle” (priority 2018, dated 2024)

Tests used:
[1] = Encapsulation of purpurin dye in nanogel, aqueous dispersion; type: physicochemical; conditions: 2 mg purpurin, 6 mg PEG diacrylate (MW 1000) β-cyclodextrin crosslinked nanogel, 3 ml di water, stirring overnight
Procedure: 6 mg of PEG diacrylate (MW 1000) β-cyclodextrin crosslinked nanogel was dispersed in 3 ml of di water, 2 mg of purpurin solid was added to the solution. The resulted mixture was stirring overnight.

[2] = test system: Human Lung Carcinoma A549; assay: Cell Titer-Glo Luminescent Cell Viability assay, antiproliferative activity, A549; type: cell-based; conditions: A549 cell line, 72 hours culture with test article, highest concentration 0.4 μM
Procedure: (§1) The antiproliferative activity was studied against human tumor cell lines, Human Lung Carcinoma A549 and Human Mammary Gland Adenocarcinoma MCF-7 with Promega's Cell Tier-Glo® Luminescent Cell Viability assay.
(§2) A preliminary cell titration was conducted to select the proper seeding density for the growth of these lines for the relevant time frames.
(§3) The tumor cells were seeded in a volume of 90 μL/well of growth medium into a white polystyrene 96-well microculture plate (Corning® Costar® 96-well flat bottom plate, Cat #3917). After 24 hours of incubation in a humidified incubator at 37° C., in an atmosphere of 5% CO2 and 95% air, 10 μL of 10 serially diluted test agent in growth medium were added to each well in duplicate (10 points dose response, highest concentration 0.4 μM, with a 1:2 dilution plus untreated control). After 72 hours of culture with test article, in a humidified incubator at the atmosphere of 5% CO2 and 95% air, the plate cells and Cell Titer-Glo® (Promega G7571) reagents were brought to room temperature to equilibrate for 30 minutes. 100 μL of Cell Titer-Glo® (Promega G7571) reagent was added to each well. The plates were shaken for two minutes and then left to equilibrate for ten minutes prior to reading luminescence on the Biotech Synergy II microplate reader. The IC50 results are listed in the following tables and are shown in graphs in FIG. 5 and FIG. 6.

[3] = test system: Human Mammary Gland Adenocarcinoma MCF-7; assay: Cell Titer-Glo Luminescent Cell Viability assay, antiproliferative activity, MCF-7; type: cell-based; conditions: MCF7, MCF-7 cell line, 72 hours culture with test article, highest concentration 0.4 μM
Procedure: as §1, §2, §3

[4] = native cyclodextrin; cited from earlier work

With O=C1c2ccccc2C(=O)c2c(O)c(O)cc(O)c21 [purpurin] the “Aqueous dispersion of purpurin with nanogel” value [1] was “dispersed in the aqueous as a transparent colloidal solution”.

With CC(=O)O[C@H]1C(=O)[C@@]2(C)[C@H]([C@H](OC(=O)c3ccccc3)[C@]3(O)C[C@H](OC(=O)[C@H](O)[C@@H](NC(=O)c4ccccc4)c4ccccc4)C(C)=C1C3(C)C)[C@]1(OC(C)=O)CO[C@@H]1C[C@@H]2O [Paclitaxel Control, paclitaxel] the IC50 [2] was 5.98 nM and the IC50 [3] was 1.06 nM.

In the case of OC[C@H]1O[C@@H]2O[C@H]3[C@H](O)[C@@H](O)[C@@H](O[C@H]4[C@H](O)[C@@H](O)[C@@H](O[C@H]5[C@H](O)[C@@H](O)[C@@H](O[C@H]6[C@H](O)[C@@H](O)[C@@H](O[C@H]7[C@H](O)[C@@H](O)[C@@H](O[C@H]1[C@H](O)[C@H]2O)O[C@@H]7CO)O[C@@H]6CO)O[C@@H]5CO)O[C@@H]4CO)O[C@@H]3CO [α-cyclodextrin], the solubility [4] is given as 129.5 g/kg.
